According to PubChem BioAssay (NCI):
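Values below derive from 48-hour exposures of cells grown in 96-well plates, with endpoints linearly interpolated between the two concentrations bracketing the appropriate inhibition level. The concentration for 50% growth inhibition is given as GI50. TGI is the concentration that stops growth completely.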

Legend:
Assay in all cases: DTP human tumour cell line panel, 48 h
786-0 renal = test system: 786-0 renal
HCT-15 colon = test system: HCT-15 colon
HOP-62 NSCLC = test system: HOP-62 NSCLC
HT29 colon = test system: HT29 colon
KM12 colon = test system: KM12 colon
SF-295 CNS = test system: SF-295 CNS
SF-539 CNS = test system: SF-539 CNS
SK-MEL-2 melanoma = test system: SK-MEL-2 melanoma
SNB-75 CNS = test system: SNB-75 CNS
TK-10 renal = test system: TK-10 renal

| Structure (SMILES) | GI50 (786-0 renal) [µM] | TGI (786-0 renal) [µM] | GI50 (HCT-15 colon) [µM] | TGI (HCT-15 colon) [µM] | GI50 (HOP-62 NSCLC) [µM] | TGI (HOP-62 NSCLC) [µM] | GI50 (HT29 colon) [µM] | TGI (HT29 colon) [µM] | GI50 (KM12 colon) [µM] | TGI (KM12 colon) [µM] | GI50 (SF-295 CNS) [µM] | TGI (SF-295 CNS) [µM] | GI50 (SF-539 CNS) [µM] | TGI (SF-539 CNS) [µM] | GI50 (SK-MEL-2 melanoma) [µM] | TGI (SK-MEL-2 melanoma) [µM] | GI50 (SNB-75 CNS) [µM] | TGI (SNB-75 CNS) [µM] | GI50 (TK-10 renal) [µM] | TGI (TK-10 renal) [µM] |
| --- | --- | --- | --- | --- | --- | --- | --- | --- | --- | --- | --- | --- | --- | --- | --- | --- | --- | --- | --- | --- |
| Cc1cc2c(cc1C)N(C(=O)CCl)CCN2C(=O)CCl | 0.657 | 1.58 | 0.45 | 2.42 | 1.71 | 3.37 | 0.301 | 0.943 | 1.72 | 3.31 | 1.96 | 4.13 | 1.65 | 3.24 | 1.81 | 4.22 | 1.48 | 3.1 | 1.79 | 4.76 |
| Cc1sc2nc3c4ccccc4c(NCCCN(C)C)nn3c(=O)c2c1C | 9.14 | 21.9 | 6.73 | 20.8 | 12.3 | 25.3 | 1.52 | 3.36 | 4.84 | 17.7 | 8.25 | 26.5 | 1.65 | 3.04 | 20 | 39.7 | 3.46 | 16.4 | 13.6 | 28.9 |
| CC(CCC(=O)O)C(=O)O (stereo not given) | – | > 100 | – | > 100 | – | > 100 | – | > 100 | – | > 100 | – | > 100 | – | > 100 | – | > 100 | – | > 100 | – | > 100 |
| Cc1ccc2nc(-c3ccc(N(C)C)c(Br)c3)cn2c1 | > 100 | > 100 | 4.19 | > 100 | > 100 | > 100 | 7.02 | > 100 | 54.1 | > 100 | > 100 | > 100 | 8.14 | > 100 | > 100 | > 100 | 31.3 | > 100 | > 100 | > 100 |
| C/C(CCc1ccccc1)=N\NC(N)=S | – | > 100 | – | > 100 | – | > 100 | – | > 100 | – | > 100 | – | > 100 | – | > 100 | – | > 100 | – | > 100 | – | > 100 |
| CCOc1cc(/C=N\Nc2nnc(C)n2N)c(C)cc1N(CCCl)CCCl | 1.51 | 23.2 | 1.28 | > 44.5 | 0.631 | 22.5 | 0.648 | 7.17 | 0.897 | 19.9 | 1.13 | 6.23 | 1.29 | 17.4 | 2.11 | 5.33 | 0.692 | 6.5 | 1.97 | 51.4 |
| O=C(O)c1ccc2c(c1)CCCC(c1ccc(Cl)cc1Cl)=C2c1ccc(O[C@H]2CCN(CCCF)C2)cc1 | 12.9 | 28 | 6.38 | 20.1 | 15 | 33.6 | 11.9 | 28.1 | 7.29 | 20.3 | 7.86 | 20.5 | 14.1 | 27.5 | 14.3 | 30.6 | 12.1 | 25.3 | 13.4 | 27.6 |
| C[C@]12CCCC(=O)C1(O)C[C@H](C(=O)O)CC2 (stereo not given in full) | – | > 100 | – | > 100 | – | > 100 | – | > 100 | – | > 100 | – | > 100 | – | > 100 | – | > 100 | – | > 100 | – | > 100 |
| C=C1C(=O)O[C@H]2[C@H]1CC/C(COC(=O)c1cc3cc(Cl)ccc3[nH]1)=C\CC[C@@]1(C)O[C@@H]21 | 1.51 | 2.91 | 1 | 2.43 | 2.22 | 5.88 | 1.33 | 3.12 | 2.15 | 6.92 | 3.18 | 16.5 | 1.44 | 2.92 | 1.73 | 3.59 | 0.576 | 2.07 | 1.75 | 3.12 |
| CC[C@]1(O)C(=O)OCc2c1cc1n(c2=O)Cc2cc3c(N)cccc3nc2-1 | – | > 100 | – | > 100 | – | > 100 | – | > 100 | – | > 100 | – | > 100 | – | > 100 | – | > 100 | – | 99.1 | – | > 100 |
| CCn1c(-c2nonc2N)nc2c(C#CC(C)(C)O)nc(OCCNC)cc21 | 7.98 | > 25 | 9.67 | > 25 | 7.81 | > 25 | 6.21 | 13.8 | 5.82 | 23.3 | 6.66 | > 22.6 | 6.11 | 20.7 | 6.64 | 15.4 | 7.78 | > 25 | 6.35 | 20.4 |
| CCOc1cccc(/C=N/NC(=O)C(=O)Nc2cccc(C(F)(F)F)c2)c1O | 3.27 | 41.3 | 0.459 | > 100 | 3.1 | 53.6 | 6.51 | > 100 | 3 | > 100 | 0.372 | 7.97 | 2.18 | 11.2 | 5.3 | > 100 | 5.38 | 57.8 | 4.3 | > 100 |
| COc1ccc2cc(-c3c(-c4ccncc4)nc(-c4ccc(S(C)(=O)=O)cc4C)n3C)ccc2c1 | 11.4 | > 25 | 7.97 | > 25 | 8.81 | > 23.9 | 8.37 | > 25 | 8.05 | > 25 | 7.83 | > 25 | 10.8 | > 25 | 6.78 | > 25 | 6.67 | > 25 | 5.82 | 23.2 |
| Fc1cc2[nH]ncc2c2c3c(c(-c4cn[nH]c4C(F)(F)F)nc12)C1CCC3C1 (stereo not given) | 1.19 | 5.27 | 1.33 | 7.28 | 0.97 | 3.75 | 1.47 | 10.5 | 0.656 | 6.3 | 1.21 | 4.94 | 0.82 | 2.1 | 1.57 | 4.2 | 0.945 | 2.93 | 0.744 | 4.08 |
| O=C1c2cc(Cl)ccc2-c2c1c1ccc([N+](=O)[O-])cc1c(=O)n2CCCBr | 2.62 | 9.31 | 31.2 | > 100 | 2.46 | 23 | 12.5 | > 100 | 20.8 | > 100 | 2.63 | > 100 | 3.94 | > 100 | 82.6 | > 100 | 5.96 | 64.2 | 61.9 | > 100 |
| O=C(N/N=C(/CCN1CCCC1)CC(c1ccccc1)c1c(O)c2ccccc2oc1=O)c1ccncc1 (stereo not given) | – | > 100 | – | > 100 | – | > 100 | – | > 100 | – | > 100 | – | > 100 | – | > 100 | – | > 100 | – | > 100 | – | > 100 |
| CNCCn1c(=O)c2cc(OC)c(OC)cc2c2ccc3cc4c(cc3c21)OCO4 | 0.109 | 0.537 | 0.175 | 3.06 | 0.0705 | 1.08 | 0.072 | 1.04 | 0.219 | 4.98 | 0.0346 | 0.359 | 0.133 | 0.424 | 0.533 | 1.53 | 0.127 | 5.53 | 0.513 | 1.56 |
| NC(=O)c1cc2c3ccccc3ccn2c1-c1ccccc1 | 0.0775 | 13.6 | 0.0543 | 11.9 | 0.446 | 18.8 | 0.412 | 9.12 | 0.0396 | 3.88 | 0.0304 | 1.05 | 0.0248 | 0.0716 | 0.883 | 40.9 | 0.758 | > 46.9 | 0.719 | 24 |
| COc1ccc(Cn2cc3c(c2)-c2oncc2CC3)cc1 | 13.2 | > 100 | 4.33 | > 70.6 | 9.64 | > 100 | 3.69 | > 64.8 | 2.62 | 20.7 | 4.08 | 35.9 | 2.94 | 14.9 | 4.88 | 22.3 | 2.95 | 40.5 | 8.76 | 86.8 |
| N.N.N.N.O=C([O-])C(Cl)Cl.O=C([O-])C(Cl)Cl.[Co+3].[O-][Cl+3]([O-])([O-])[O-] | > 100 | > 100 | > 100 | > 100 | > 100 | > 100 | > 100 | > 100 | > 100 | > 100 | > 100 | > 100 | > 100 | > 100 | > 100 | > 100 | > 100 | > 100 | > 100 | > 100 |
| CS(=O)(=O)CSCSSCS(C)(=O)=O | – | 41.3 | – | > 84.8 | – | > 100 | – | > 100 | – | > 100 | – | 55.7 | – | 53.5 | – | 46.7 | – | > 100 | – | > 100 |
| COc1ccc(N2C(=O)[C@H]3CC(C)c4c([nH]c5ccccc45)[C@H]3C2=O)cc1 (stereo not given in full) | – | 16.4 | – | > 100 | – | 16.3 | – | 21 | – | 63.1 | – | 7.71 | – | 10.5 | – | 16.5 | – | 12.5 | – | 52.7 |
| Cc1cc2c(cc1Cl)SC1=NN(C)C(N(C)C)N1S2(=O)=O (stereo not given) | > 100 | > 100 | > 100 | > 100 | > 100 | > 100 | > 100 | > 100 | > 100 | > 100 | > 100 | > 100 | > 100 | > 100 | > 100 | > 100 | 86.4 | > 100 | > 100 | > 100 |
| COc1cc(C(=O)Nc2cc3c(cc2Oc2cc(C)cc(C)c2)C(=O)N(C)[C@@H](CC(=O)N(C)O)C(=O)N3)c(Br)c(OC)c1OC | 0.00824 | 0.0429 | 0.144 | 2.04 | < 0.00333 | 0.00372 | < 0.00333 | < 0.00333 | < 0.00333 | 0.0394 | < 0.00333 | 0.00898 | < 0.00333 | < 0.00333 | < 0.00333 | < 0.00333 | < 0.00333 | < 0.00333 | 0.00526 | 0.0264 |
| Cc1ccc(-c2cc(-c3ccco3)c(C#N)c(=O)n2C2OC(OC(=O)c3ccccc3)C(OC(=O)c3ccccc3)C2OC(=O)c2ccccc2)cc1 (stereo not given) | – | > 100 | – | > 100 | – | > 100 | – | > 100 | – | > 100 | – | > 100 | – | > 100 | – | > 100 | – | > 100 | – | > 100 |
| O=C(O)C1CCCCC1C(=O)O.[NH-]C1CCC1.[NH2-].[Pt+2] (stereo not given) | 15.4 | 33 | 17.3 | 34.5 | 77 | > 100 | 17.2 | 35.3 | > 100 | > 100 | 42.6 | > 100 | 17 | 33.2 | 57.2 | > 100 | 84.6 | > 100 | 18.1 | 34.4 |
| CCC[n+]1cc2cc(OC)c(OC)cc2c2c1-c1cc3c(cc1C2)OCO3 | 1.11 | 12.3 | 46.9 | > 100 | 3.92 | 19.7 | 5.03 | > 34.6 | 2.12 | 7.03 | 8.1 | 26.6 | 0.992 | 6.34 | 2.65 | 9.18 | 0.843 | 4.52 | 22.6 | 58.9 |
